Experimental data taken from ChEMBL document CHEMBL4673317, “Linearolactone and Kaempferol Disrupt the Actin Cytoskeleton in Entamoeba histolytica: Inhibition of Amoebic Liver Abscess Development” (J Nat Prod, 2020).
pIC50: −log10 of the molar value. Calls of active or inactive are those of the source. No cut-off for these calls is given here.

How the values were obtained:
Entamoeba histolytica [1] = experiment: Antimicrobial activity against Entamoeba histolytica […] trophozoites infected in Syrian hamster assessed as inhibition of amoebic liver abscess by measuring edema at 0.5 mg/kg, ip at 4 days post infection and measured on day 8 by H and E staining based microscopic method; type: functional, organism-based; details: HM-1:IMSS, time 4.0 day
Entamoeba histolytica [2] = experiment: Antimicrobial activity against Entamoeba histolytica […] trophozoites infected in Syrian hamster assessed as ALP level at 0.05 mg/kg, ip at 4 days post infection and measured on day 8 (reference value: 638 +/- 50 U/L); type: functional, HM-1:IMSS; details: time 4 day
Entamoeba histolytica [3] = experiment: Induction of ROS generation in Entamoeba histolytica […] trophozoites at IC50 concentration incubated for 1 hr by DCFDA staining based assay; type: functional, organism-based; details: HM-1:IMSS
Entamoeba histolytica [4] = experiment: Antimicrobial activity against Entamoeba histolytica […] trophozoites infected in Syrian hamster assessed as ALT level at 0.05 mg/kg, ip at 4 days post infection and measured on day 8 (reference value: 276 +/- 24 U/L); type: functional, HM-1:IMSS; details: time 4 day
CHO-K1 = experiment: Cytotoxicity against CHO-K1 cells assessed as reduction in cell viability after 24 hrs by MTT assay; type: cell-based; details: Cricetulus griseus, CHO-K1, 24 h
Entamoeba histolytica [5] = experiment: Antimicrobial activity against Entamoeba histolytica […] trophozoites infected in Syrian hamster assessed as urea level at 0.05 mg/kg, ip at 4 days post infection and measured on day 8 (reference value: 14 +/- 1 mg/dl); type: functional, HM-1:IMSS; details: time 4 day
Entamoeba histolytica [6] = experiment: Induction of apoptosis in Entamoeba histolytica […] trophozoites assessed as early apoptotic cells at IC50 concentration after 48 hrs by annexin-V-FITC/propidium iodide staining based flow cytometric analysis (reference value: 0.9%); type: functional, HM-1:IMSS
Entamoeba histolytica [7] = experiment: Binding affinity to Entamoeba histolytica […] trophozoites actin assessed as induction of polarization of polymerized actin at IC50 concentration incubated for 1 hrs by […] staining based confocal microscopic analysis
Entamoeba histolytica [8] = experiment: Induction of ROS generation in Entamoeba histolytica […] trophozoites at IC50 concentration incubated for 1 hr in presence of trolox by DCFDA staining based assay relative to control; type: functional, HM-1:IMSS
Entamoeba histolytica [9] = experiment: Induction of apoptosis in Entamoeba histolytica […] trophozoites assessed as necrotic cells at IC50 concentration after 48 hrs by annexin-V-FITC/propidium iodide staining based flow cytometric analysis (reference value: 0.4%); type: functional, HM-1:IMSS
Entamoeba histolytica [10] = experiment: Antimicrobial activity against Entamoeba histolytica […] trophozoites infected in Syrian hamster assessed as inhibition of amoebic liver abscess by abundant monocytes at 0.5 mg/kg, ip at 4 days post infection and measured on day 8 by H and E staining based microscopic method; type: functional, organism-based; details: HM-1:IMSS, time 4.0 day
Entamoeba histolytica [11] = experiment: Induction of apoptosis in Entamoeba histolytica […] trophozoites assessed as viable cells at IC50 concentration after 48 hrs by annexin-V-FITC/propidium iodide staining based flow cytometric analysis (reference value: 98%); type: functional, HM-1:IMSS
Entamoeba histolytica [12] = experiment: Antimicrobial activity against Entamoeba histolytica […] trophozoites assessed as decrease in granularity at IC50 concentration after 48 hrs by uranyl acetate staining based TEM analysis; type: functional, organism-based; details: HM-1:IMSS
Entamoeba histolytica [13] = experiment: Antimicrobial activity against Entamoeba histolytica […] trophozoites infected in Syrian hamster assessed as inhibition of amoebic liver abscess at 0.5 mg/kg, ip at 4 days post infection and measured on day 8 by NMR analysis; type: functional, organism-based; details: HM-1:IMSS, time 4.0 day
Entamoeba histolytica [14] = experiment: Antimicrobial activity against Entamoeba histolytica […] trophozoites infected in Syrian hamster assessed as inhibition of amoebic liver abscess by measuring vascular congestion at 0.5 mg/kg, ip at 4 days post infection and measured on day 8 by H and E staining based microscopic method; type: functional, organism-based; details: HM-1:IMSS, time 4.0 day
Entamoeba histolytica [15] = experiment: Antimicrobial activity against Entamoeba histolytica […] trophozoites infected in Syrian hamster assessed as glucose level at 0.05 mg/kg, ip at 4 days post infection and measured on day 8 (reference value: 126 +/- 18 mg/dl); type: functional, HM-1:IMSS; details: time 4 day
Entamoeba histolytica [16] = experiment: Antimicrobial activity against Entamoeba histolytica […] trophozoites infected in Syrian hamster assessed as creatinine level at 0.05 mg/kg, ip at 4 days post infection and measured on day 8 (reference value: 0.9 +/- 0.06 mg/dl); type: functional, HM-1:IMSS; details: time 4 day
Entamoeba histolytica [17] = experiment: Antimicrobial activity against Entamoeba histolytica […] trophozoites assessed as decrease in size of cells at IC50 concentration after 48 hrs by uranyl acetate staining based TEM analysis; type: functional, organism-based; details: HM-1:IMSS
Entamoeba histolytica [18] = experiment: Antimicrobial activity against Entamoeba histolytica […] trophozoites assessed as abnormal condensation of chromatin at IC50 concentration after 48 hrs by uranyl acetate staining based TEM analysis; type: functional, organism-based; details: HM-1:IMSS
Entamoeba histolytica [19] = experiment: Antimicrobial activity against Entamoeba histolytica […] trophozoites assessed as decrease in number of vacuoles at IC50 concentration after 48 hrs by uranyl acetate staining based TEM analysis; type: functional, organism-based; details: HM-1:IMSS
Entamoeba histolytica [20] = experiment: Antimicrobial activity against Entamoeba histolytica […] trophozoites infected in Syrian hamster assessed as blood ureic nitrogen level at 0.05 mg/kg, ip at 4 days post infection and measured on day 8 (reference value: […]); type: functional, HM-1:IMSS; details: time 4 day
Giardia intestinalis = experiment: Antigiardial activity against Giardia lamblia WB infected in ig dosed CD-1 mouse assessed as reduction in parasite growth after 8 days; type: functional; details: Giardia duodenalis, po, 192 h, time 8 day
Entamoeba histolytica [21] = experiment: Antimicrobial activity against Entamoeba histolytica […] trophozoites infected in Syrian hamster assessed as total bilirubin level at 0.05 mg/kg, ip at 4 days post infection and measured on day 8 (reference value: 0.8 +/- 0.2 mg/dl); type: functional, HM-1:IMSS; details: time 4 day
Entamoeba histolytica [22] = experiment: Antimicrobial activity against Entamoeba histolytica […] trophozoites infected in Syrian hamster assessed as platelets at 0.05 mg/kg, ip at 4 days post infection and measured on day 8 (reference value: 439 +/- 108 […]); type: functional, HM-1:IMSS; details: time 4 day
Entamoeba histolytica [23] = experiment: Antimicrobial activity against Entamoeba histolytica HM1:MMS assessed as reduction in amoeba growth; type: functional, organism-based; details: HM-1:IMSS
Entamoeba histolytica [24] = experiment: Antimicrobial activity against Entamoeba histolytica […] trophozoites infected in Syrian hamster assessed as total leukocytes at 0.05 mg/kg, ip at 4 days post infection and measured on day 8 (reference value: 18 +/- 16 […]/mm3); type: functional, HM-1:IMSS; details: time 4 day
Entamoeba histolytica [25] = experiment: Induction of apoptosis in Entamoeba histolytica […] trophozoites assessed as late apoptotic cells at IC50 concentration after 48 hrs by annexin-V-FITC/propidium iodide staining based flow cytometric analysis (reference value: 0.7%); type: functional, HM-1:IMSS
BEAS-2B = experiment: Cytotoxicity against human BEAS-2B cells assessed as reduction in cell viability after 24 hrs by MTT assay; type: cell-based
Entamoeba histolytica [26] = experiment: Antimicrobial activity against Entamoeba histolytica […] trophozoites infected in Syrian hamster assessed as triglycerides level at 0.05 mg/kg, ip at 4 days post infection and measured on day 8 (reference value: 395 +/- 41 mg/dl); type: functional, HM-1:IMSS; details: time 4 day

In the case of `O=c1c(O)c(-c2ccc(O)cc2)oc2cc(O)cc(O)c12` [KAEMPFEROL], the inhibition (Entamoeba histolytica [1]) was “Active”, the Activity (Entamoeba histolytica [2]) was 348 U/L and the Activity (Entamoeba histolytica [3]) was “Active”. The Activity (Entamoeba histolytica [4]) was 55 U/L, the pIC50 (CHO-K1) was 3.62 and the Activity (Entamoeba histolytica [5]) was 42 mg/dL. The Activity (Entamoeba histolytica [6]) was 4.2%, the Activity (Entamoeba histolytica [7]) was “Active” and the Activity (Entamoeba histolytica [8]) was 33.36%. The Activity (Entamoeba histolytica [9]) was 2.4%, the inhibition (Entamoeba histolytica [10]) was “Active” and the Activity (Entamoeba histolytica [11]) was 87.3%. For the same compound, the Activity (Entamoeba histolytica [12]) was “Active”, the inhibition (Entamoeba histolytica [13]) was “Active” and the inhibition (Entamoeba histolytica [14]) was “Active”. For the same compound, the Activity (Entamoeba histolytica [15]) was 58 mg/dL, the Activity (Entamoeba histolytica [16]) was 0.5 mg/dL and the Activity (Entamoeba histolytica [17]) was “Active”. The Activity (Entamoeba histolytica [18]) was “Active”, the Activity (Entamoeba histolytica [19]) was “Active” and the Activity (Entamoeba histolytica [20]) was 19 mg/dL. The ED50 (Giardia intestinalis) was 2.06 µmol/kg, the Activity (Entamoeba histolytica [21]) was 0.4 mg/dL and the Activity (Entamoeba histolytica [22]) was 679 thousand/mm3. It also gave a pIC50 (Entamoeba histolytica [23]) of 6.64, an Activity (Entamoeba histolytica [24]) of 19 thousand/mm3 and an Activity (Entamoeba histolytica [25]) of 6.1%. The pIC50 (BEAS-2B) was 3.46 and the Activity (Entamoeba histolytica [26]) was 442 mg/dL.
